This is an account of results in US4588722A, “N-(4-piperidinyl) bicyclic condensed 2-imidazolamine derivatives” (priority 1984, dated 1986).

Counter-ions that a name gives are not always drawn.

The first experiment relates to compound 48/80-induced lethality in rats. As to the kind of experiment: Protection of rats from compound 48/80-induced lethality. It is filed as in vivo, rat (male, inbred Wistar strain). The settings on record: Rattus norvegicus, 4 h, read-out: Compound 48/80 lethality test in rats-ED50. The text has this: PROTECTION OF RATS FROM COMPOUND 48/80-INDUCED LETHALITY
Compound 48/80, a mixture of oligomers obtained by condensation of 4-methoxy-N-methylbenzeneethanamine and formaldehyde has been described as a potent histamine releasing agent (Int. Arch. Allergy, 13, 336 (1958)). The protection from compound 48/80-induced lethal circulatory collapse appears to be a simple way of evaluating quantitatively the antihistaminic activity of test compounds. Male rats of an inbred Wistar strain, weighing 240-260 g were used in the experiment. After overnight starvation the rats were transferred to conditioned laboratories (temp.=21±1° C., relative humidity=65±5%). The rats were treated subcutaneously or orally with a test compound or with the solvent (NaCl solution, 0.9%). One hour after treatment there was injected intravenously compound 48/80, freshly dissolved in water, at a dose of 0.5 mg/kg (0.2 ml/100 g of body weight). In control experiments, wherein 250 solvent-treated animals were injected with the standard dose of compound 48/80, not more than 2.8% of the animals survived after 4 hours. Survival after 4 hours is therefore considered to be a safe criterion of a protective effect of drug administration.
Said ED50 -values are the values in mg/kg body weight at which the tested compounds protect 50% of the tested animals against compound 48/80-induced lethality.
Regarding `N=C(NCCN1CCC(Nc2nc3ccccc3n2Cc2ccc(F)cc2)CC1)N[N+](=O)[O-]` [Compound 23, N-[2-[4-[[1-[(4-fluorophenyl)methyl]-1H-benzimidazol-2-yl]amino]-1-piperidinyl]ethyl]-N'-nitroguanidine], the ED50 turned out to be 0.08 mg/kg.

The experiment is the same for the next values; noted with them: Rattus norvegicus; test compound subcutaneously or orally (route of each value not given) 1 hour before compound 48/80 0.5 mg/kg intravenously; dose protecting 50% of animals, survival after 4 hours; read-out: Compound 48/80 lethality test in rats-ED50.
On to `C=COCCN1CCC(Nc2nc3ccccc3n2Cc2ccc(F)cc2)CC1` [Compound 1, N-[1-[2-(ethenyloxy)ethyl]-4-piperidinyl]-1-(4-fluorophenylmethyl)-1H-benzimidazol-2-amine], for which the ED50 was 0.08 mg/kg.

Turning to `COc1ccc(CCN2CCC(Nc3nc4ncccc4n3Cc3ccc(F)cc3)CC2)cc1` [Compound 2, 1-[(4-fluorophenyl)methyl]-N-[1-[2-(4-methoxyphenyl)ethyl]-4-piperidinyl]-1H-imidazo[4,5-b]pyridin-2-amine], the ED50 worked out at 0.08 mg/kg.

On to `COc1ccc(CCN2CCC(Nc3nc4cnccc4n3Cc3ccc(F)cc3)CC2)cc1` [Compound 3, 1-[(4-fluorophenyl)methyl]-N-[1-[2-(4-methoxyphenyl)ethyl]-4-piperidinyl]-1H-imidazo[4,5-c]pyridin-2-amine], for which the ED50 was determined as 0.16 mg/kg.

For the compound `O=c1cc[nH]c(=O)n1CCN1CCC(Nc2nc3ccccc3n2Cc2ccc(F)cc2)CC1` [Compound 5, 3-[2-[4-[[1-[(4-fluorophenyl)methyl]-1H-benzimidazol-2-yl]amino]-1-piperidinyl]ethyl]-2,4-(1H,3H)-pyrimidinedione], the ED50 is 0.08 mg/kg.

Regarding `O=c1oc2ccccc2cc1CCN1CCC(Nc2nc3ccccc3n2Cc2cscn2)CC1` [Compound 6, 3-[2-[4-[[1-(4-thiazolylmethyl)-1H-benzimidazol-2-yl]amino]-1-piperidinyl]ethyl]-2H-1-benzopyran-2-one dihydrochloride.sesquihydrate], the ED50 was 0.16 mg/kg.

`O=c1oc2ccccc2cc1CCN1CCC(Nc2nc3cccnc3n2Cc2ccccn2)CC1` [Compound 7, 3-[2-[4-[[3-(2-pyridinylmethyl)-3H-imidazo[4,5-b]pyridin-2-yl]amino]-1-piperidinyl]ethyl]-2H-1benzopyran-2-one trihydrochloride.dihydrate]: the ED50 turned out to be 0.04 mg/kg.

Take `O=c1oc2ccccc2cc1CCN1CCC(Nc2nc3ccccc3n2Cc2cccs2)CC1` [Compound 8, 3-[2-[4-[[1-(2-thienylmethyl)-1H-benzimidazol-2-yl]amino]-1-piperidinyl]ethyl]-2H-1-benzopyran-2-one]: the ED50 was 0.16 mg/kg.

As to `O=c1oc2ccccc2cc1CCN1CCC(Nc2nc3ccccc3n2Cc2ccccn2)CC1` [Compound 9, 3-[2-[4-[[1-(2-pyridinylmethyl)-1H-benzimidazol-2-yl]amino]-1-piperidinyl]ethyl]-2H-1-benzopyran-2-one dihydrochloride.dihydrate], the ED50 was 0.08 mg/kg.

Consider `O.O=c1oc2ccccc2cc1CCN1CCC(Nc2nc3ccccc3n2Cc2cccnc2)CC1` [Compound 10, 3-[2-[4-[[1-(3-pyridinylmethyl)-1H-benzimidazol-2-yl]amino]-1-piperidinyl]ethyl]-2H-1-benzopyran-2-one monohydrate], for which the ED50 came to 0.31 mg/kg.

In the case of `O=c1oc2ccccc2cc1CCN1CCC(Nc2nc3ccccc3n2Cc2ccc(F)cc2)CC1` [Compound 12, 3-[2-[4-[[1-[(4-fluorophenyl)methyl]-1H-benzimidazol-2-yl]amino]-1-piperidinyl]ethyl]-2H-1-benzopyran-2-one], the ED50 was determined as 0.16 mg/kg.

With `COc1ccc(CCN2CCC(Nc3nc4ccccc4n3Cc3cnccn3)CC2)cc1` [Compound 13, N-[1-[2:(4-methoxyphenyl)ethyl]-4-piperidinyl]-1-[(2-pyrazinyl)methyl]-1H-benzimidazol-2-amine], the ED50 was 0.04 mg/kg.

Turning to `O.O=c1oc2ccccc2cc1CCN1CCC(Nc2nc3ccccc3n2Cc2ccco2)CC1` [Compound 14, 3-[2-[4-[[1-(2-furanylmethyl)-1H-benzimidazol-2-yl]amino]-1-piperidinyl]ethyl]-2H-1-benzopyran-2-one monohydrate], the ED50 is 0.08 mg/kg.

For `O=c1oc2ccccc2cc1CCN1CCC(Nc2nc3cccnc3n2Cc2ccco2)CC1` [Compound 15, 3-[2-[4-[[3-(2-furanylmethyl)-3H-imidazo[4,5-b]pyridin-2-yl]amino]-1-piperidinyl]ethyl]-2H-1-benzopyran-2-one], the ED50 came to 0.01 mg/kg.

For `O.O=c1oc2ccccc2cc1CCN1CCC(Nc2nc3cccnc3n2Cc2ccc(F)cc2)CC1` [Compound 16, 3-[2-[4-[[3-[(4-fluorophenyl)methyl]-3H-imidazo [4,5-b]pyridin-2-yl]-amino]-1-piperidinyl]ethyl]-2H-1-benzopyran-2-one monohydrate], the ED50 turned out to be 0.04 mg/kg.

Take `COc1ccc(CCN2CCC(Nc3nc4ccccc4n3Cc3cscn3)CC2)cc1` [Compound 17, N-[1-[2-(4-methoxyphenyl)ethyl]-4-piperidinyl]-1-(4-thiazolyl)-methyl)-1H-benzimidazol-2-amine dihydrobromide. dihydrate]: the ED50 amounted to 0.08 mg/kg.

Turning to `Cc1nccn1CCN1CCC(Nc2nc3ccccc3n2Cc2ccc(F)cc2)CC1` [Compound 20, 1-[(4-fluorophenyl)methyl]-N-[1-[2-(2-methyl-1H-imidazol-1-yl)ethyl]-4-piperidinyl]-1H-benzimidazol-2-amine], the ED50 turned out to be 0.31 mg/kg.

`CSC(=NC#N)NCCN1CCC(Nc2nc3cccnc3n2Cc2ccc(F)cc2)CC1` [Compound 21, S-methyl N'-cyano-N-[2-[4-[[3-[(4-fluorophenyl)methyl]-3H-imidazo[4,5-b]pyridin-2-yl]amino]-1-piperidinyl]ethyl]carbamimidothioate]: the ED50 amounted to 0.16 mg/kg.

Consider `COC(CNC(=NC#N)NCCN1CCC(Nc2nc3ccccc3n2Cc2ccc(F)cc2)CC1)OC.O=C(O)/C=C/C(=O)O.O=C(O)/C=C/C(=O)O` [Compound 24, N"-cyano-N-(2,2-dimethoxyethyl)-N'-[2-[4-[[1-[(4-fluorophenyl)methyl]-1H-benzimidazol-2-yl]amino]-1-piperidinyl]ethyl]guanidine (E)-2-butenedioate(1:2)], for which the ED50 worked out at 0.16 mg/kg.

Turning to `CN(C)C(=NC#N)NCCN1CCC(Nc2nc3ccccc3n2Cc2ccc(F)cc2)CC1` [Compound 25], the ED50 stood at 0.08 mg/kg.

Consider `N#CN=C(NCCN1CCOCC1)NCCN1CCC(Nc2nc3ccccc3n2Cc2ccc(F)cc2)CC1` [Compound 26, N"-cyano-N-[2-[4-[[1-[(4-fluorophenyl)methyl]-1H-benzimidazol-2-yl]-aminol]-1-piperidinyl]ethyl]-N'-[2-(4-morpholinyl)ethyl]guanidine monohydrate], for which the ED50 was determined as 0.16 mg/kg.

In the case of `Fc1ccc(Cn2c(NC3CCN(CCNC(=S)N4CCOCC4)CC3)nc3ccccc32)cc1` [Compound 28, N-[2-[4-[[1-[(4-fluorophenyl)methyl]-1H-benzimidazol-2-yl]amino]-1-piperidinyl]ethyl]-4-morpholinecarbothioamide], the ED50 stood at 0.16 mg/kg.

In the case of `O.OCCCNC(=S)NCCN1CCC(Nc2nc3ccccc3n2Cc2ccc(F)cc2)CC1` [Compound 30, N-[2-[4-[[1-[(4-fluorophenyl)methyl]-1H-benzimidazol-2-yl]amino]-1-piperidinyl]ethyl]-N'(3-hydroxypropyl)thiourea monohydrate], the ED50 worked out at 0.08 mg/kg.

Take `CN(C)C(=S)NCCN1CCC(Nc2nc3ccccc3n2Cc2ccc(F)cc2)CC1` [Compound 31]: the ED50 was found to be 0.08 mg/kg.

Turning to `CCN(CC)C(=S)NCCN1CCC(Nc2nc3ccccc3n2Cc2ccc(F)cc2)CC1` [Compound 32, N,N-diethyl-N'-[2-[4-[[1-[(4-fluorophenyl)methyl]-1H-benzimidazol-2-yl]-amino]-1-piperidinyl]ethyl]thiourea], the ED50 came out at 0.16 mg/kg.

For the compound `NNC(=S)NCCN1CCC(Nc2nc3ccccc3n2Cc2ccc(F)cc2)CC1.O` [Compound 34, N-[2-[4-[[1-[(4-fluorophenyl)methyl]-1H-benzimidazol-2-yl]amino]-1-piperidinyl]ethyl]hydrazinecarbothioamide monohydrate], the ED50 stood at 0.02 mg/kg.

With `CCOC(=S)NCCN1CCC(Nc2nc3ccccc3n2Cc2ccc(F)cc2)CC1` [Compound 35, ethyl [2-[4-[[1-[(4-fluorophenyl)-methyl]-1H-benzimidazol-2-yl]amino]-1-piperidinyl]ethyl]carbamothioate], the ED50 worked out at 0.16 mg/kg.

Consider `CNC(=O)N1CCC(N2CCC(Nc3nc4ccccc4n3Cc3ccc(F)cc3)CC2)CC1` [Compound 36, 4-[[1-(4-fluorophenyl)methyl]-1H-benzimidazol-2-ylamino]-N-methyl-[1,4'-bipiperidine]-1'-carboxamide monohydrate], for which the ED50 came out at 0.16 mg/kg.

Regarding `CNC(=S)N1CCCC(N2CCC(Nc3nc4ccccc4n3Cc3ccc(F)cc3)CC2)C1` (stereo not drawn) [Compound 37, 4-[[1-[(4-fluorophenyl)methyl]-1H-benzimidazol-2-yl]amino]-N-methyl-[1,3'-bipiperidine]-1'-carbothioamide], the ED50 worked out at 0.08 mg/kg.

With `Fc1ccc(Cn2c(NC3CCN(CCNC(=S)Nc4ccccc4)CC3)nc3ccccc32)cc1` [Compound 40, N-[2-[4-[[1-[(4-fluorophenyl)methyl]-1H-benzimidazol-2-yl]amino]-1-piperidinyl]ethyl]-N'phenylthiourea], the ED50 amounted to 0.16 mg/kg.
